# Assay results from US7495088B1, “Modified nucleotide compounds” (Enzo Life Sciences, Inc., priority 1989, dated 2009).
# T1: Spleen phosphodiesterase (5'->3' exonuclease) (Bos taurus) (UniProt Q2KJJ8)
# T1 sequence: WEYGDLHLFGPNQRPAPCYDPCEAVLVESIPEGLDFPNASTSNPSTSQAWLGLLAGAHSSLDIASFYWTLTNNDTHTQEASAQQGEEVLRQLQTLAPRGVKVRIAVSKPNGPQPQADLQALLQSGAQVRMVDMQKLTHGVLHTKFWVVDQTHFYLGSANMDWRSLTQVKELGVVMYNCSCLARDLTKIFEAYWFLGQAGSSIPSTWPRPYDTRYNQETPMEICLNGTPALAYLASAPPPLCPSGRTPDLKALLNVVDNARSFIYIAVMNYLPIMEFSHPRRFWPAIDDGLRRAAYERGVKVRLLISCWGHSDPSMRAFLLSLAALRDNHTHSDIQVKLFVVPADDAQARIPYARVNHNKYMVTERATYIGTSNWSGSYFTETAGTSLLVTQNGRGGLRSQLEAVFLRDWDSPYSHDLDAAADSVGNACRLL
# T2: Bovine spleen DNase II (Bos taurus, UniProt P56541)
# T2 sequence (P56541 20-365): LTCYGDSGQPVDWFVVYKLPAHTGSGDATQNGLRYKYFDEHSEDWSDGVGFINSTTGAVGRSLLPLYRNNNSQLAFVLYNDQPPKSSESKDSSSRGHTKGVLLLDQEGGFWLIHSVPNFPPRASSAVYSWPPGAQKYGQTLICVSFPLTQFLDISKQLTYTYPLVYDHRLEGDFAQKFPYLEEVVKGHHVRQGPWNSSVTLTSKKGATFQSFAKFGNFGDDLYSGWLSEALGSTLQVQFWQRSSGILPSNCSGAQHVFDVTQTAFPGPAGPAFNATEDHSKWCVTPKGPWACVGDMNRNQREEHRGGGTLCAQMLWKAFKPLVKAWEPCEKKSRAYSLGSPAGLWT
# T3: DNase II (spleen) (Bos taurus, UniProt P56541 P56541:20-365)
# T3 sequence: T2 sequence (P56541 20-365)
# Experiments:
# [1] = tested on: Worthington venom exonuclease
# [2] = tested on: Bovine spleen phosphodiesterase
# [3] = target: T1, Spleen phosphodiesterase (5'->3' exonuclease) (Bos taurus); experiment: cleavage_in_vitro
# [4] = tested on: Snake venom phosphodiesterase; conditions: pH 9
# E. coli RNase H = E. coli RNase H (Escherichia coli, UniProt P0A7Y4); conditions: 2 units RNase H, 60 minutes 37° C.; for ability to form RNase H substrate, 14-mer binding site: 32P-labeled runoff transcripts of pSP65-ALA-D
# Chain of E. coli RNase H (P0A7Y4 whole entry): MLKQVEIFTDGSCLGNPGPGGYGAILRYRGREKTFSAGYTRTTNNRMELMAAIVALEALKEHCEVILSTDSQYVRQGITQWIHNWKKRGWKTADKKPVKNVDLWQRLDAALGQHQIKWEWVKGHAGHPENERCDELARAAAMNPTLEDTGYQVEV
# Bovine spleen DNase II = target: T2, Bovine spleen DNase II
# DNase II (spleen) = target: T3, DNase II (spleen); experiment: cleavage_in_vitro; pH 4.6, 25 C; conditions: tags: Bethesda Research Laboratories
# DNase I (pancreas) = DNase I (pancreas) (Bos taurus, UniProt P00639 P00639:23-282); experiment: cleavage_in_vitro; Mg, Ca, 37 C; conditions: tags: Bethesda Research Laboratories
# Chain of DNase I (pancreas) (P00639 23-282, one chain of several): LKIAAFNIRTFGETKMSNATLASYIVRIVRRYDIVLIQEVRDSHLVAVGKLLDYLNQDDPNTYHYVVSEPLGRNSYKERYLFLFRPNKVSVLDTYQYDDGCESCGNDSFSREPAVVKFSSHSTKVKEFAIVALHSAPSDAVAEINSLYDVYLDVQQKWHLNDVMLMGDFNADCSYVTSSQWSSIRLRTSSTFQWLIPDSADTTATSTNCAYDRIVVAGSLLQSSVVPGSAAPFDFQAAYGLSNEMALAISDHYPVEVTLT
# [5] = target: Snake venom phosphodiesterase (3'->5' exonuclease) (Crotalus adamanteus, UniProt J3SEZ3 J3SEZ3:24-851); experiment: cleavage_in_vitro; Tris pH 9.0, 37 C; conditions: tags: Sigma
# Chain of Snake venom phosphodiesterase (3'->5' exonuclease) (J3SEZ3 24-851, one chain of several): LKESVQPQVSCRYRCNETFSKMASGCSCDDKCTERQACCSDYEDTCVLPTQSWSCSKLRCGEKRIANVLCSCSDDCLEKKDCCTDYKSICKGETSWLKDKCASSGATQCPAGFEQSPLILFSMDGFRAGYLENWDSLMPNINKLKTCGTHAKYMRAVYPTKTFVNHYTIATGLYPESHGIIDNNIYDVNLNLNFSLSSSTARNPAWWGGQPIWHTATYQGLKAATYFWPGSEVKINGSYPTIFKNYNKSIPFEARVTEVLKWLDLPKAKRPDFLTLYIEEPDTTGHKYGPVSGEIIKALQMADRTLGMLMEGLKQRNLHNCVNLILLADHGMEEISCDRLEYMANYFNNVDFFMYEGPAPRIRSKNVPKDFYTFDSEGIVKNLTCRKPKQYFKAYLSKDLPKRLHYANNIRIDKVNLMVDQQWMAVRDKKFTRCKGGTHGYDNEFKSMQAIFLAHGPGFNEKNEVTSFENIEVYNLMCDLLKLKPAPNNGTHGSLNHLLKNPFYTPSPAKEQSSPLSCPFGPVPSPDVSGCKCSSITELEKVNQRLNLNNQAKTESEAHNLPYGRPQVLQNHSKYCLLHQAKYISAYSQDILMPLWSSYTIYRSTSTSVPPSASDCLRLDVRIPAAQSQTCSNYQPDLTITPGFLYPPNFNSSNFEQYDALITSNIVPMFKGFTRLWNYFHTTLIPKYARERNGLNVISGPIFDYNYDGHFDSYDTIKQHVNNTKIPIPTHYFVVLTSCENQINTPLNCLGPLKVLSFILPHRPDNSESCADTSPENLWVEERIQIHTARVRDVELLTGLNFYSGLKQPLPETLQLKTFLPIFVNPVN
# [6] = target: Venom phosphodiesterase (3'->5' exonuclease) (UniProt J3SEZ3 J3SEZ3:24-851); experiment: cleavage_in_vitro; Worthington venom exonuclease; conditions: tags: Worthington
# Chain of Venom phosphodiesterase (3'->5' exonuclease) (J3SEZ3 24-851, one chain of several): as above
molecule,measurement,setting,value
ATGCAGCTAAGTCA (chemistry not given here) [14-C/T-4],increase in half-life as compared to 14-C-4,[1],two-fold
ATGCAGCTAAGTCA (chemistry not given here) [Oligomer 14-C-4],observation after spleen exonuclease digestion (electrophoretic mobility of the hybrid),[2],apparently shortened
ATGCAGCTAAGTCA [14-C-4],activity (relative half-life),"[3]; 3' methylphosphonate linkage at C4,C7,C13, all modified oligos tested more than 200 times as resistant, apparently shortened",> 200
ATGCAGCTAAGTCA [14-G-4],activity (relative half-life),"[3]; 3' methylphosphonate linkage at G3,G6,G11, >>200, apparently shortened",> 200
ATGCAGCTAAGTCA [14-G-4] (chemistry not given here) [Oligomer 14-G-4],observation after spleen exonuclease digestion (electrophoretic mobility of the hybrid),[2],apparently shortened
ATGCAGCTAAGTCA [14-P-4],activity (relative half-life),"[3]; half-time about 30 min, citrate pH 6.0, 37 C",1
ATGCAGCTAAGTCA [14-P-4] (chemistry not given here) [Oligomer 14-P-4],"Exonuclease Relative Half-Life, Venom (3′->5′-)",[4],1
ATGCAGCTAAGTCA [14-T-4],activity (relative half-life),"[3]; 3' methylphosphonate linkage at T2,T8,T12, >>200, apparently shortened",> 200
ATGCAGCTAAGTCA [14-T-4] (chemistry not given here) [Oligomer 14-T-4],observation after spleen exonuclease digestion (electrophoretic mobility of the hybrid),[2],apparently shortened
CTGGGGCTGCAT [12-Me^5a-1],"ability to form RNase H substrate / cleavage of RNA, 12-mer binding site",E. coli RNase H; NcoI runoff transcript,permitted cleavage of most of the RNA
TGACTTAGCTGCAT (chemistry not given here) [Oligomer 14-P-3],half-life for digestion by DNase II,Bovine spleen DNase II; bovine,10 h
same,"Endonuclease Relative Half-Life, DNase II",Bovine spleen DNase II; pH 4.6,1
same,"Tissue Culture Stabilities, Relative Half-Life, +FCS. B95-8",B95-8 cells,1
TGACTTAGCTGCAT [14-A-3],activity (relative half-life),"[3]; 3' methylphosphonate linkage at A3,A7,A13, >>200",> 200
TGACTTAGCTGCAT [14-A-3] (chemistry not given here) [Oligomer 14-A-3],"ability to form RNase H substrate, 14-mer binding site",E. coli RNase H,formed RNase H substrates
TGACTTAGCTGCAT [14-C-3],activity (relative half-life),"[3]; 3' methylphosphonate linkage at C4,C9,C12, >>200",> 200
TGACTTAGCTGCAT [14-C-3] (chemistry not given here) [Oligomer 14-C-3],"ability to form RNase H substrate, 14-mer binding site",E. coli RNase H,formed RNase H substrates
TGACTTAGCTGCAT [14-Me6a-3],activity (relative half-life),"[3]; 3' methylphosphonate linkage at positions 2,4,6,8,10,12, >>200",> 200
TGACTTAGCTGCAT [14-Me^5a-3] (chemistry not given here),"ability to form RNase H substrate, 14-mer binding site",E. coli RNase H,able to form RNase H substrates
same,3′-exonucleolytic cleavage in tissue culture,B95-8 cells,single stepwise cleavage
same,"Tissue Culture Stabilities, Relative Half-Life, +FCS. B95-8",B95-8 cells,30
TGACTTAGCTGCAT [14-Me^5b-3] (chemistry not given here),"ability to form RNase H substrate, 14-mer binding site",E. coli RNase H,able to form RNase H substrates
same,3′-exonucleolytic cleavage in tissue culture,B95-8 cells,absence of cleavage
same,"Tissue Culture Stabilities, Relative Half-Life, +FCS. B95-8",B95-8 cells,30
TGACTTAGCTGCAT [14-Me^6a-3] (chemistry not given here),"ability to form RNase H substrate, 14-mer binding site",E. coli RNase H,did not
same,3′-exonucleolytic cleavage in tissue culture,B95-8 cells,single stepwise cleavage
same,"Tissue Culture Stabilities, Relative Half-Life, +FCS. B95-8",B95-8 cells,30
TGACTTAGCTGCAT [14-Me^6b-3] (chemistry not given here),3′-exonucleolytic cleavage in tissue culture,B95-8 cells,absence of cleavage
same,"Tissue Culture Stabilities, Relative Half-Life, +FCS. B95-8",B95-8 cells,30
TGACTTAGCTGCAT [14-P-3],activity (relative half-life),"[3]; half-time about 30 min, citrate pH 6.0, 5 mM EDTA, 37 C",1
"TGACTTAGCTGCAT [14-P-3] (chemistry not given here) [Oligomer 14-P-3, reference compound]","Exonuclease Relative Half-Life, Venom (3′->5′-)",[4],1
same,"ability to form RNase H substrate, 14-mer binding site",E. coli RNase H,formed RNase H substrates
"TGACTTAGCTGCAT (ssDNA, 3' methylphosphonate linkage at A3,A7,A13) [14-A-3]",activity,DNase II (spleen),> 5 relative half-life
"TGACTTAGCTGCAT (ssDNA, 3' methylphosphonate linkage at C4,C9,C12) [14-C-3]",activity,DNase I (pancreas),6 relative half-life
same,activity,DNase II (spleen),2 relative half-life
same,activity,[5],> 500 relative half-life
"TGACTTAGCTGCAT (ssDNA, 3' methylphosphonate linkage at positions 2,4,6,10,12) [14-Me5a-3]",activity,DNase I (pancreas),300 relative half-life
same,activity,DNase II (spleen),> 5 relative half-life
"TGACTTAGCTGCAT (ssDNA, 3' methylphosphonate linkage at positions 2,4,6,8,10,12) [14-Me6a-3]",activity,DNase I (pancreas),> 600 relative half-life
same,activity,DNase II (spleen),> 5 relative half-life
"ATGCAGCTAAGTCA (ssDNA, 3' methylphosphonate linkage at T12,C13) [14-C/T-4]",activity,[6],~2 half-life relative to 14-C-4
"TGACTTAGCTGCAT (ssDNA, 3' methylphosphonate linkage at positions 2,4,6,9,11,13) [14-Me6b-3]",activity,DNase I (pancreas),> 600 relative half-life
same,activity,DNase II (spleen),> 5 relative half-life
"ATGCAGCTAAGTCA (ssDNA, 3' methylphosphonate linkage at G3,G6,G11) [14-G-4]",activity,[5],100 relative half-life
"TGACTTAGCTGCAT (ssDNA, 3' methylphosphonate linkage at positions 2,4,6,8,13) [14-Me5b-3]",activity,DNase I (pancreas),12 relative half-life
same,activity,DNase II (spleen),> 5 relative half-life
"ATGCAGCTAAGTCA (ssDNA, 3' methylphosphonate linkage at T2,T8,T12) [14-T-4]",activity,[5],> 500 relative half-life
